In publication PMC10786919, “Design-rules for stapled peptides with in vivo activity and their application to Mdm2/X antagonists” (Nature Communications, 2024):
Converted amounts (≈) assume the structure as drawn. Like-named read-outs stand apart in the source and are kept apart here. Positions of bridges follow the written chain, without caps; N, C: chain ends. Non-standard residues stand in square brackets, D forms with d. Residues, ends and D or L forms follow the SMILES beside them. Trp(6-Cl) = N[C@@H](Cc1c[nH]c2cc(Cl)ccc12)C(=O)O; Phe(3,4-Cl2) = N[C@@H](Cc1ccc(Cl)c(Cl)c1)C(=O)O; Lys(N3) = [N-]=[N+]=NCCCC[C@H](N)C(=O)O; R8 = C=CCCCCCC[C@@](C)(N)C(=O)O; Cba = N[C@@H](CC1CCC1)C(=O)O; S5 = C=CCCC[C@](C)(N)C(=O)O; βAla = NCCC(=O)O; Sar = CNCC(=O)O

Columns and labels:
in vitro = assay: in vitro
In short: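 Azido-peptide permeability was read as loss of NanoBRET signal (donor 450 nm, acceptor 610 nm) after adding NanoBret618-azide at 10 μM final.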

[1] = Experimental LogD (partition coefficient); settings: for logD: not stated, Partition Coeff LogD
[2] = Solubility assay (kinetic solubility, PBS pH 7); assay type: physicochemical; settings: pH 7, PBS; for solubility kinetic: pH 7, aqueous buffer, kinetic from dmso stock, read-out: Solubility
In short: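 Next, measure peak areas of sample and standard. Finally, multiply their ratio by the standard concentration to obtain solubility (µM).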

HCT116 cells = assay: Lactate dehydrogenase (LDH) release assay; assay type: cell-based
In short: (§1)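 A p53 β-lactamase reporter HCT116 line, 8000 cells per well, is exposed to test compounds at 0.5% final DMSO and scored for LDH leakage.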

[3] = Lactate dehydrogenase (LDH) release assay; assay type: cell-based
In short: as §1

[4] = Nanoclick permeability assay EC50
[5] = 0% FBS 4Hr, read-out: LDH: Cytotoxicity assay: EC50

Row | SMILES | cell entry EC50 (in vitro; [4]) [nM] | logD [1] | Solubility [2] | LDH: Cytotoxicity assay: % Effect (HCT116 cells) [%] | EC50 ([3]; LDH: Cytotoxicity assay: EC50) [nM] | EPSA (physchem) [A^2] | cell entry EC50 (in vitro) [nM] | solubility kinetic [2] [µM] | LDH: Cytotoxicity assay: % Effect (HCT116 cells; 0% FBS 4Hr) [%] | LDH: Cytotoxicity assay: % Effect (HCT116 cells; 0% FBS 16Hr) [%] | EC50 [3, 5] [nM] | EC50 ([3]; 0% FBS 16Hr, read-out: LDH: Cytotoxicity assay: EC50) [nM] | Partition Coeff LogD [1] | EC50 ([3]; 4 hours, 0% serum, read-out: LDH Cytotoxicity assay EC50) [nM]
1 | CC(C)C[C@@H]1NC(=O)[C@H](C)NC(=O)[C@H](Cc2c[nH]c3ccccc23)NC(=O)[C@H](Cc2ccc(O)cc2)NC(=O)[C@H](CCC(=O)O)NC(=O)[C@](C)(NC(=O)[C@H](Cc2ccccc2)NC(=O)[C@H](CO)NC(=O)[C@@H](NC(=O)CCNC(=O)[C@@H](N)CCCCN=[N+]=[N-])[C@@H](C)O)CCCCCCC=CCCC[C@@](C)(C(N)=O)NC(=O)[C@H](CC(C)C)NC1=O [MP-0177] | 130 | 2.7 | Poorly Behaved | -0.29 | > 50600 | 218 | – | – | – | – | – | – | – | –
2 | CC(=O)N[C@@H](CCCCN=[N+]=[N-])C(=O)NCCC(=O)N[C@@H](CC(C)C)C(=O)N[C@H](C(=O)N[C@@H](Cc1ccccc1)C(=O)N[C@]1(C)CCCCCCC=CCCC[C@@](C)(C(=O)N[C@@H](CO)C(=O)N[C@@H](C)C(=O)N[C@@H](C)C(N)=O)NC(=O)[C@H](C)NC(=O)[C@H](CCC(N)=O)NC(=O)[C@H](C)NC(=O)[C@H](Cc2c[nH]c3ccccc23)NC(=O)[C@H](Cc2ccc(O)cc2)NC(=O)[C@H](CCC(=O)O)NC1=O)[C@@H](C)O [MP-894, AZIDE-ATSP-7041 (CBA10 TO A)] (Ac-[Lys(N3)][βAla]LTF[R8]EYWAQA[S5]SAA-NH2; staple 6-13) | – | 2.59 | – | – | – | 198 | 1330 | 93 (≈ 178 µg/mL) | 3.381 | 18.53 | > 50000 | > 50000 | – | –
3 | CC(=O)N[C@@H](CCCCN=[N+]=[N-])C(=O)NCCC(=O)N[C@@H](CC(C)C)C(=O)N[C@H](C(=O)N[C@@H](Cc1ccccc1)C(=O)N[C@]1(C)CCCCCCC=CCCC[C@@](C)(C(=O)N[C@@H](CO)C(=O)N[C@@H](C)C(=O)N[C@@H](C)C(N)=O)NC(=O)[C@H](CC2CCC2)NC(=O)[C@H](CCC(N)=O)NC(=O)[C@H](C)NC(=O)[C@H](Cc2ccc(Cl)c(Cl)c2)NC(=O)[C@H](Cc2ccc(O)cc2)NC(=O)[C@H](CCC(=O)O)NC1=O)[C@@H](C)O [MP-765] (Ac-[Lys(N3)][βAla]LTF[R8]EY[Phe(3,4-Cl2)]AQ[Cba][S5]SAA-NH2; staple 6-13) | 1830 | – | Poorly Behaved | 2.873 | > 50600 | 199 | – | – | – | – | – | – | Poorly Behaved | –
4 | CC(=O)N[C@@H](CCCCN=[N+]=[N-])C(=O)NCCC(=O)N[C@@H](CC(C)C)C(=O)N[C@H](C(=O)N[C@@H](Cc1ccccc1)C(=O)N[C@]1(C)CCCCCCC=CCCC[C@@](C)(C(=O)N[C@@H](CO)C(=O)N[C@@H](C)C(=O)N[C@@H](C)C(N)=O)NC(=O)[C@H](CC2CCC2)NC(=O)[C@H](CCC(N)=O)NC(=O)CN(C)C(=O)[C@H](Cc2c[nH]c3ccccc23)NC(=O)[C@H](Cc2ccc(O)cc2)NC(=O)[C@H](CCC(=O)O)NC1=O)[C@@H](C)O [MP-351] (Ac-[Lys(N3)][βAla]LTF[R8]EYW[Sar]Q[Cba][S5]SAA-NH2; staple 6-13) | > 10000 | 2.26 | – | -3.92 | > 50000 | 193 | – | 29 (≈ 57.1 µg/mL) | – | – | – | – | – | –
5 | CC(=O)N[C@@H](CCCCN=[N+]=[N-])C(=O)NCCC(=O)N[C@@H](CC(C)C)C(=O)N[C@H](C(=O)N[C@@H](Cc1ccccc1)C(=O)N[C@]1(C)CCCCCCC=CCCC[C@@](C)(C(=O)N[C@@H](CO)C(=O)N[C@@H](C)C(=O)N[C@@H](C)C(N)=O)NC(=O)[C@H](CC2CCC2)NC(=O)[C@H](CCC(N)=O)NC(=O)[C@H](C)NC(=O)[C@H](Cc2c[nH]c3ccccc23)NC(=O)[C@H](Cc2ccccc2)NC(=O)[C@H](CCC(=O)O)NC1=O)[C@@H](C)O [MP-028] (Ac-[Lys(N3)][βAla]LTF[R8]EFWAQ[Cba][S5]SAA-NH2; staple 6-13) | 46.4 | 3.2 | – | 33.41 | 8430 | 197 | – | 6 (≈ 11.7 µg/mL) | – | – | – | – | – | –
6 | CC(=O)N[C@@H](CCCCN=[N+]=[N-])C(=O)NCCC(=O)N[C@@H](CC(C)C)C(=O)N[C@H](C(=O)N[C@@H](Cc1ccccc1)C(=O)N[C@]1(C)CCCCCCC=CCCC[C@@](C)(C(=O)N2CCC[C@H]2C(=O)N[C@@H](C)C(=O)N[C@@H](C)C(N)=O)NC(=O)[C@H](CC2CCC2)NC(=O)[C@H](CCC(N)=O)NC(=O)[C@H](C)NC(=O)[C@H](Cc2c[nH]c3ccccc23)NC(=O)[C@H](Cc2ccc(O)cc2)NC(=O)[C@H](CCC(=O)O)NC1=O)[C@@H](C)O [MP-184] (Ac-[Lys(N3)][βAla]LTF[R8]EYWAQ[Cba][S5]PAA-NH2; staple 6-13) | 360 | – | Poorly Behaved | 10.48 | > 50600 | 201 | – | – | – | – | – | – | Poorly Behaved | –
7 | CC(=O)N[C@@H](CCCCN=[N+]=[N-])C(=O)NCCC(=O)N[C@@H](CC(C)C)C(=O)N[C@H](C(=O)N[C@@H](Cc1ccccc1)C(=O)N[C@]1(C)CCCCCCC=CCCC[C@@](C)(C(=O)N[C@@H](CO)C(=O)N[C@@H](C)C(=O)N[C@@H](C)C(N)=O)NC(=O)[C@H](CC2CCC2)NC(=O)[C@H](CCC(N)=O)NC(=O)[C@H](C)NC(=O)[C@H](Cc2c[nH]c3ccccc23)NC(=O)[C@H](Cc2ccc(O)cc2)NC(=O)[C@H](CCC(=O)O)NC1=O)C(C)C [MP-258] (Ac-[Lys(N3)][βAla]LVF[R8]EYWAQ[Cba][S5]SAA-NH2; staple 6-13) | 146 | 2.93 | – | -5.925 | > 50600 | 213 | – | 79 (≈ 155 µg/mL) | – | – | – | – | – | –
8 | CC(C)C[C@H](NC(=O)CCNC(=O)[C@@H](N)CCCCN=[N+]=[N-])C(=O)N[C@H](C(=O)N[C@@H](Cc1ccccc1)C(=O)N[C@]1(C)CCCCCCC=CCCC[C@@](C)(C(N)=O)NC(=O)[C@H](CC2CCC2)NC(=O)[C@H](CCC(N)=O)NC(=O)[C@H](C)NC(=O)[C@H](Cc2c[nH]c3ccccc23)NC(=O)[C@H](Cc2ccc(O)cc2)NC(=O)[C@H](CCC(=O)O)NC1=O)[C@@H](C)O [MP-327] (H-[Lys(N3)][βAla]LTF[R8]EYWAQ[Cba][S5]-NH2; staple 6-13) | > 10000 | 2.83 | – | 39.84 | > 50600 | 228 | – | – | – | – | – | – | – | –
9 | CC(=O)N[C@@H](CCCCN=[N+]=[N-])C(=O)NCCC(=O)N[C@H](CC(C)C)C(=O)N[C@H](C(=O)N[C@@H](Cc1ccccc1)C(=O)N[C@]1(C)CCCCCCC=CCCC[C@@](C)(C(=O)N[C@@H](CO)C(=O)N[C@H](C)C(=O)N[C@@H](C)C(N)=O)NC(=O)[C@H](CC2CCC2)NC(=O)[C@H](C)NC(=O)[C@H](C)NC(=O)[C@H](Cc2c[nH]c3cc(Cl)ccc23)NC(=O)[C@H](Cc2ccc(O)cc2)NC(=O)[C@H](C)NC1=O)[C@@H](C)O [MP-493] (Ac-[Lys(N3)][βAla][dL]TF[R8]AY[Trp(6-Cl)]AA[Cba][S5]S[dA]A-NH2; staple 6-13) | 84.5 | 3.93 | – | – | > 50600 | 187 | – | < 1 | – | – | – | – | – | –
10 | CC(=O)N(C)CC(=O)N[C@@H](CCCCN=[N+]=[N-])C(=O)NCCC(=O)N[C@@H](C)C(=O)N[C@H](C(=O)N[C@@H](Cc1ccccc1)C(=O)N[C@]1(C)CCCCCCC=CCCC[C@@](C)(C(=O)N[C@@H](C)C(=O)N[C@@H](C)C(=O)N[C@@H](C)C(N)=O)NC(=O)[C@H](CC2CCC2)NC(=O)[C@H](C)NC(=O)[C@H](C)NC(=O)[C@H](Cc2c[nH]c3ccccc23)NC(=O)[C@H](Cc2ccc(O)cc2)NC(=O)[C@H](C)NC1=O)[C@@H](C)O [MP-895] (Ac-[Sar][Lys(N3)][βAla]ATF[R8]AYWAA[Cba][S5]AAA-NH2; staple 7-14) | 197 | 3.46 | – | – | > 50600 | 184 | – | 2 (≈ 3.74 µg/mL) | – | – | – | – | – | –
11 | CC(=O)N[C@@H](CCCCN=[N+]=[N-])C(=O)NCCC(=O)N[C@@H](CC(C)C)C(=O)N[C@H](C(=O)N[C@@H](Cc1ccccc1)C(=O)N[C@]1(C)CCCCCCC=CCCC[C@@](C)(C(=O)N[C@@H](CO)C(=O)N[C@@H](C)C(=O)N(C)CC(N)=O)NC(=O)[C@H](CC2CCC2)NC(=O)[C@H](CCC(N)=O)NC(=O)[C@H](C)NC(=O)[C@H](Cc2c[nH]c3ccccc23)NC(=O)[C@H](Cc2ccc(O)cc2)NC(=O)[C@H](CCC(=O)O)NC1=O)[C@@H](C)O [MP-566] (Ac-[Lys(N3)][βAla]LTF[R8]EYWAQ[Cba][S5]SA[Sar]-NH2; staple 6-13) | 132 | 2.69 | – | – | > 50600 | 204 | – | 87.5 (≈ 172 µg/mL) | – | – | – | – | – | –
12 | CC(=O)N[C@@H](CCCCN=[N+]=[N-])C(=O)NCCC(=O)N[C@@H](CC(C)C)C(=O)N[C@H](C(=O)N[C@@H](Cc1ccccc1)C(=O)N[C@]1(C)CCCCCCC=CCCC[C@@](C)(C(=O)N[C@@H](CO)C(=O)N[C@@H](C)C(=O)N[C@@H](C)C(N)=O)NC(=O)[C@H](CC2CCC2)NC(=O)[C@H](CCC(N)=O)NC(=O)[C@H](C)NC(=O)[C@H](C)NC(=O)[C@H](Cc2ccc(O)cc2)NC(=O)[C@H](CCC(=O)O)NC1=O)[C@@H](C)O [MP-893, AZIDE-ATSP-7041(W7A)] | – | 2.88 | – | – | – | 192 | 1230 | 51 (≈ 94.6 µg/mL) | – | – | 15000 | – | – | 15000
